Assay results reported in PubChem BioAssay AID328 (DTP/NCI, 2004).
Several values for one entry are separate records, joined by “and”; a condition that tells them apart may be missing. Equal entries are not always repeated. Toxic doses and inconclusive results are not listed. Non-standard residues stand in square brackets, D forms with d. Residues, ends and D or L forms follow the SMILES beside them. Ac5c = NC1(C(=O)O)CCCC1

System: BDF1 mice, P388 leukemia ip, median survival T/C
Assay: NCI In Vivo Anticancer Drug Screen. Data for tumor model P388 Leukemia (intraperitoneal) in B6D2F1 (BDF1) mice
Conditions: endpoint: median survival time, higher = longer survival
In short: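 Reported as T/C, where T is the survival measurement in dosed animals and C the same measurement in vehicle controls.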

[1] = dose: 2.0 mg/kg/injection, schedule: Q01DX009 (ip), vehicle: saline
[2] = dose: 100.0 mg/kg/injection, schedule: Q04DX003 (ip), vehicle: saline with Tween-80
[3] = dose: 200.0 mg/kg/injection, schedule: Q04DX003 (ip), vehicle: saline with Tween-80
[4] = dose: 50.0 mg/kg/injection, schedule: Q01DX009 (ip), vehicle: saline with Tween-80
[5] = dose: 100.0 mg/kg/injection, schedule: Q01DX009 (ip), vehicle: saline with Tween-80
[6] = dose: 100.0 mg/kg/injection, schedule: Q01DX009 (ip), vehicle: saline
[7] = dose: 200.0 mg/kg/injection, schedule: Q01DX009 (ip), vehicle: saline
[8] = dose: 200.0 mg/kg/injection, schedule: Q01DX009 (ip), vehicle: saline with Tween-80
[9] = dose: 400.0 mg/kg/injection, schedule: Q04DX003 (ip), vehicle: saline with Tween-80

For `CC1CN1CC(O)C(O)CN1CC1C` (stereo not drawn), the T/C (dose: 0.09 mg/kg/injection, schedule: Q04DX003 (ip), vehicle: saline) was 100 % of control, the T/C (dose: 0.19 mg/kg/injection, schedule: Q04DX003 (ip), vehicle: saline) was 103 % of control and the T/C (dose: 0.78 mg/kg/injection, schedule: Q01DX009 (ip), vehicle: saline) was 165 % of control. For the same compound, the T/C (dose: 0.78 mg/kg/injection, schedule: Q04DX003 (ip), vehicle: saline) was 200 % of control, the T/C (dose: 0.8 mg/kg/injection, schedule: Q01DX009 (ip), vehicle: saline with Tween-80) was 225 % of control and the T/C (dose: 1.2 mg/kg/injection, schedule: Q01DX009 (ip), vehicle: saline with Tween-80) was 241 % of control. The T/C (dose: 1.3 mg/kg/injection, schedule: Q04DX003 (ip), vehicle: saline) was 170 % of control, the T/C (dose: 1.56 mg/kg/injection, schedule: Q01DX009 (ip), vehicle: saline) was 203 % of control and the T/C (dose: 1.56 mg/kg/injection, schedule: Q04DX003 (ip), vehicle: saline) was 229 % of control and 181 % of control. For the same compound, the T/C (dose: 1.8 mg/kg/injection, schedule: Q01DX009 (ip), vehicle: saline with Tween-80) was 250 % of control, the T/C [1] was 250 % of control and the T/C (dose: 3.0 mg/kg/injection, schedule: Q01DX009 (ip), vehicle: saline) was 250 % of control. The T/C (dose: 3.12 mg/kg/injection, schedule: Q01DX009 (ip), vehicle: saline) was 203 % of control, the T/C (dose: 3.12 mg/kg/injection, schedule: Q04DX003 (ip), vehicle: saline) was 222 % of control and the T/C (dose: 3.3 mg/kg/injection, schedule: Q04DX003 (ip), vehicle: saline) was 236 % of control. The T/C (dose: 4.5 mg/kg/injection, schedule: Q04DX003 (ip), vehicle: saline) was 200 % of control, the T/C (dose: 5.0 mg/kg/injection, schedule: Q04DX003 (ip), vehicle: saline) was 295 % of control and the T/C (dose: 6.25 mg/kg/injection, schedule: Q01DX009 (ip), vehicle: saline) was 95 % of control. The T/C (dose: 6.25 mg/kg/injection, schedule: Q04DX003 (ip), vehicle: saline) was 231 % of control, the T/C (dose: 6.6 mg/kg/injection, schedule: Q04DX003 (ip), vehicle: saline) was 259 % of control and the T/C (dose: 10.0 mg/kg/injection, schedule: Q04DX003 (ip), vehicle: saline) was 86 % of control.

In the case of `COc1cccc2c1C(=O)c1c(O)c3c(c(O)c1C2=O)C[C@@](O)(C(C)=O)C[C@@H]3OC1CC(NC(=O)c2ccncc2)C(O)C(C)O1` (stereo partly drawn), the T/C (dose: 3.13 mg/kg/injection, schedule: Q01DX009 (ip), vehicle: water) is reported as 150 % of control, the T/C (dose: 6.25 mg/kg/injection, schedule: Q01DX009 (ip), vehicle: water) is reported as 154 % of control and the T/C (dose: 12.5 mg/kg/injection, schedule: Q01DX009 (ip), vehicle: water) is reported as 159 % of control.

For `Nc1nc(N)c2cc(CNc3ccc(C(=O)NC(CC(=O)O)CC(=O)O)cc3)cnc2n1`, the T/C [2] was 101 % of control, the T/C [3] was 113 % of control and the T/C (dose: 300.0 mg/kg/injection, schedule: Q04DX003 (ip), vehicle: saline with Tween-80) was 86 % of control.

With `Cc1cc2nc3n(c2cc1C)C(C)(C)N=C(N)N3` the T/C [4] was 102 % of control and the T/C [5] was 112 % of control.

`CCC(C)NC(=S)NN` (stereo not drawn) was tested, and the T/C (dose: 10.0 mg/kg/injection, schedule: Q01DX009 (ip), vehicle: saline with Tween-80) was 95 % of control, the T/C (dose: 20.0 mg/kg/injection, schedule: Q01DX009 (ip), vehicle: saline with Tween-80) was 100 % of control and the T/C (dose: 40.0 mg/kg/injection, schedule: Q01DX009 (ip), vehicle: saline with Tween-80) was 95 % of control.

In the case of `O=C1OC(c2ccccc2)=N/C1=C\c1cccc(Br)c1`, the T/C (dose: 50.0 mg/kg/injection, schedule: Q04DX002 (ip), vehicle: saline with Tween-80) is reported as 99 % of control, the T/C (dose: 100.0 mg/kg/injection, schedule: Q04DX002 (ip), vehicle: saline with Tween-80) is reported as 105 % of control and the T/C (dose: 200.0 mg/kg/injection, schedule: Q04DX002 (ip), vehicle: saline with Tween-80) is reported as 89 % of control.

For `O=[N+]([O-])c1ccc(/C=C/C=C\c2cccc(S(=O)(=O)F)c2)c(Cl)c1`, the T/C (dose: 100.0 mg/kg/injection, schedule: Q01DX001 (ip), vehicle: Klucel (hydroxypropylcellulose) (HPC)) was 90 % of control and 104 % of control, the T/C (dose: 100.0 mg/kg/injection, schedule: Q01DX009 (ip), vehicle: acetone) was 112 % of control and the T/C (dose: 200.0 mg/kg/injection, schedule: Q01DX001 (ip), vehicle: Klucel (hydroxypropylcellulose) (HPC)) was 93 % of control and 100 % of control. For the same compound, the T/C (dose: 200.0 mg/kg/injection, schedule: Q01DX009 (ip), vehicle: acetone) was 108 % of control, the T/C (dose: 400.0 mg/kg/injection, schedule: Q01DX001 (ip), vehicle: Klucel (hydroxypropylcellulose) (HPC)) was 100 % of control and 106 % of control and the T/C (dose: 400.0 mg/kg/injection, schedule: Q01DX009 (ip), vehicle: acetone) was 95 % of control.

With `C=CCN(CC=C)P(=O)(N1CC1C)N1CC1C` (stereo not drawn) the T/C (dose: 0.2 mg/kg/injection, schedule: Q01DX009 (ip), vehicle: saline) was 101 % of control and the T/C (dose: 0.4 mg/kg/injection, schedule: Q01DX009 (ip), vehicle: saline) was 106 % of control.

For `NCC(=O)NC1(C(=O)O)CCCC1` (H-Gly-[Ac5c]-OH), the T/C [6] was 113 % of control and the T/C [7] was 90 % of control.

In the case of `CCC(C)C(=O)OC1C(=O)OC2CC3C(C)=CC(=O)C(O)C3(C)C3C4(O)OCC23C1C(C)C4O` (stereo not drawn), the T/C (dose: 0.06 mg/kg/injection, schedule: Q01DX009 (ip), vehicle: saline with Tween-80) is reported as 117 % of control, the T/C (dose: 0.25 mg/kg/injection, schedule: Q01DX009 (ip), vehicle: saline) is reported as 121 % of control and the T/C (dose: 1.0 mg/kg/injection, schedule: Q01DX009 (ip), vehicle: saline) is reported as 111 % of control. For the same compound, the T/C [1] was 124 % of control and the T/C (dose: 8.0 mg/kg/injection, schedule: Q01DX009 (ip), vehicle: saline with Tween-80) was 95 % of control.

With `O=C(O)C1C(C(=O)O)C2(Cl)C(Cl)=C(Cl)C1(Cl)C2(Cl)Cl.[Co]` (stereo not drawn) the T/C (dose: 25.0 mg/kg/injection, schedule: Q01DX009 (ip), vehicle: Klucel (hydroxypropylcellulose) (HPC)) was 100 % of control and the T/C (dose: 50.0 mg/kg/injection, schedule: Q01DX009 (ip), vehicle: Klucel (hydroxypropylcellulose) (HPC)) was 100 % of control.

`O=C1C=C(NC2CCCCC2)CCC1` was tested, and the T/C (dose: 50.0 mg/kg/injection, schedule: Q01DX009 (ip), vehicle: saline) was 96 % of control, the T/C [6] was 99 % of control and the T/C [7] was 99 % of control.

With `O=[N+]([O-])c1ccc(Sc2ccccc2)c2nonc12` the T/C (dose: 12.5 mg/kg/injection, schedule: Q01DX009 (ip), vehicle: saline with Tween-80) was 88 % of control, the T/C (dose: 25.0 mg/kg/injection, schedule: Q01DX009 (ip), vehicle: saline with Tween-80) was 107 % of control and the T/C [4] was 116 % of control.

`COC(=O)N(CCCl)N=O` was tested, and the T/C (dose: 2.5 mg/kg/injection, schedule: Q01DX001 (ip), vehicle: saline with Tween-80) was 109 % of control, the T/C (dose: 5.0 mg/kg/injection, schedule: Q01DX001 (ip), vehicle: saline with Tween-80) was 109 % of control and the T/C (dose: 10.0 mg/kg/injection, schedule: Q01DX001 (ip), vehicle: saline with Tween-80) was 123 % of control.

For `COc1ccc(C(C#N)CC(=O)c2ccc(OCc3ccccc3)c(OC)c2)cc1OC` (stereo not drawn), the T/C (dose: 50.0 mg/kg/injection, schedule: Q04DX003 (ip), vehicle: other) was 96 % of control, the T/C (dose: 100.0 mg/kg/injection, schedule: Q04DX003 (ip), vehicle: other) was 88 % of control and the T/C (dose: 200.0 mg/kg/injection, schedule: Q04DX003 (ip), vehicle: other) was 87 % of control. For the same compound, the T/C (dose: 400.0 mg/kg/injection, schedule: Q04DX003 (ip), vehicle: other) was 90 % of control.

In the case of `CCCCCCNC(=S)/N=C(\N)n1nc(C)cc1C`, the T/C [4] is reported as 109 % of control, the T/C [5] is reported as 99 % of control and the T/C [8] is reported as 112 % of control.

`C(=C\c1ccc2ccc(/C=C/c3ccccc3)cc2c1)/c1ccccc1` was tested, and the T/C [2] was 112 % of control, the T/C [3] was 90 % of control and the T/C [9] was 105 % of control.

In the case of `C[C@]12CC[C@@H](O)C[C@H]1CC[C@@H]1[C@@H]2CC[C@]2(C)C(=O)CC[C@@H]12`, the T/C [5] is reported as 90 % of control, the T/C [2] is reported as 105 % of control and the T/C [8] is reported as 90 % of control. For the same compound, the T/C [3] was 100 % of control, the T/C (dose: 400.0 mg/kg/injection, schedule: Q01DX009 (ip), vehicle: saline with Tween-80) was 90 % of control and the T/C [9] was 100 % of control.

In the case of `COC1=C(NCc2ccccc2)C(=O)C(OC)=C(NCc2ccccc2)C1=O`, the T/C (dose: 100.0 mg/kg/injection, schedule: Q01DX009 (ip), vehicle: Klucel (hydroxypropylcellulose) (HPC)) is reported as 90 % of control, the T/C (dose: 100.0 mg/kg/injection, schedule: Q04DX003 (ip), vehicle: Klucel (hydroxypropylcellulose) (HPC)) is reported as 95 % of control and the T/C (dose: 200.0 mg/kg/injection, schedule: Q01DX009 (ip), vehicle: Klucel (hydroxypropylcellulose) (HPC)) is reported as 100 % of control. The T/C (dose: 200.0 mg/kg/injection, schedule: Q04DX003 (ip), vehicle: Klucel (hydroxypropylcellulose) (HPC)) was 86 % of control, the T/C (dose: 400.0 mg/kg/injection, schedule: Q01DX009 (ip), vehicle: Klucel (hydroxypropylcellulose) (HPC)) was 100 % of control and the T/C (dose: 400.0 mg/kg/injection, schedule: Q04DX003 (ip), vehicle: Klucel (hydroxypropylcellulose) (HPC)) was 95 % of control.
